Drawing on US20070049593A1 (priority 2004, published 2007), this text covers IC50 for 20 compounds.

The assay deals with T1, HCV polymerase (Hepatitis C virus genotype 1b, UniProt P26663).
T1 construct: a region encoding NS5B (J Virol 1991 March, 65(3), 1105-13, 544 amino acids after deletion of 47 amino acids on the C-terminal); 6xHis (C); made in house; host or cells: Escherichia coli
The assay is described as follows: biochemical. Also on record: species or system HCV BK strain. An excerpt:
The evaluation of the HCV polymerase inhibitory activity of the compound of the present invention is explained in the following. This polymerase is an enzyme coded for by the non-structural protein region called NS5B on the genome RNA of HCV (EMBO J., 15:12-22, 1996).
Using, as a template, a cDNA clone corresponding to the full length genome RNA of HCV BK strain obtained from the blood of a patient with hepatitis C, a region encoding NS5B (J Virol 1991 March, 65(3), 1105-13, 544 amino acids after deletion of 47 amino acids on the C-terminal) was amplified by PCR. The objective gene was prepared by adding a 6 His tag {base pair encoding 6 continuous histidine (His)}to the 3′ end thereof and transformed to Escherichia coli. The Escherichia coli capable of producing the objective protein was cultured. The obtained cells were suspended in a buffer solution and crushed in a microfluidizer.
Using a synthetic primer designed based on the sequence of HCV genomic 3′ untranslated region, a DNA fragment (148 bp) containing polyU and 3′X sequence was entirely synthesized and cloned into plasmid pBluescript SK II(+) (Stratagene). The cDNA encoding full length NS5B, which was prepared in i) above, was digested with restriction enzyme KpnI to give a cDNA fragment containing the nucleotide sequence of from the restriction enzyme cleavage site to the termination codon. This cDNA fragment was inserted into the upstream of 3′ untranslated region of the DNA in pBluescript SK II(+) and ligated. The about 450 bp inserted DNA sequence was used as a template in the preparation of substrate RNA.
RNA was synthesized (37° C., 3 hr) by run-off method using this purified DNA as a template, a promoter of pBluescript SK II(+), MEGAscript RNA synthesis kit (Ambion) and T7 RNA polymerase. DNase I was added and the mixture was incubated for 1 hr. The template DNA was removed by decomposition to give a crude RNA product.
A test substance (compound of the present invention) and a reaction mixture (30 μl) having the following composition were reacted at 25° C. for 90 min.
10% Trichloroacetic acid at 4° C. and 1% sodium pyrophosphate solution (150 μl) were added to this reaction mixture to stop the reaction. The reaction mixture was left standing in ice for 15 min to insolubilize RNA. This RNA was trapped on a glass filter (Whatman GF/C and the like) upon filtration by suction. This filter was washed with a solution containing 1% trichloroacetic acid and 0.1% sodium pyrophosphate, washed with 90% ethanol and dried. A liquid scintillation cocktail (Packard) was added and the radioactivity of RNA synthesized by the enzyme reaction was measured on a liquid scintillation counter.
The HCV polymerase inhibitory activity (IC50) of the compound of the present invention was calculated from the values of radioactivity of the enzyme reaction with and without the test substance.
Reaction mixture: HCV polymerase (0.5 μg/ml) obtained in i), substrate RNA (5 μg/ml) obtained in ii), ATP (50 μM), GTP (50 μM), CTP ([…]), UTP (2 μM), [5,6-^3H]UTP (46 Ci/mmol (Amersham), 1 μCi) 20 mM Tris-HCl (pH 7.5), EDTA (1 mM), MgCl2 (5 mM), NaCl (50 mM), DTT (1 mM), BSA (0.01%)

Counter-ions that a name gives are not always drawn.

T1 sequence (P26663 2420-2963): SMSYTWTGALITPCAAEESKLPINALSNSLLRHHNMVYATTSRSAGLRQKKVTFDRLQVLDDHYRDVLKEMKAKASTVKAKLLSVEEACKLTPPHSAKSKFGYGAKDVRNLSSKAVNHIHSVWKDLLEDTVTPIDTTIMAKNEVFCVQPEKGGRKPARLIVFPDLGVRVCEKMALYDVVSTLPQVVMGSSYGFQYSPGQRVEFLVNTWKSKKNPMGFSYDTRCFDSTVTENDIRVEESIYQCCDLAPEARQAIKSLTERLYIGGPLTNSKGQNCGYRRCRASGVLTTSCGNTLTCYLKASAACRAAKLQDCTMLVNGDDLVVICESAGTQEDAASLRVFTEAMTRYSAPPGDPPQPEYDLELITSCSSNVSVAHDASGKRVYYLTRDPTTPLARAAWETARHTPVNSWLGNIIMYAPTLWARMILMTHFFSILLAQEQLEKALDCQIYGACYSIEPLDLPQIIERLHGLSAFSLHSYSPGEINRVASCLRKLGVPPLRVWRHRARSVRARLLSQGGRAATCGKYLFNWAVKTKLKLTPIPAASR

Consider `COCCN(C)C(=O)CN1CCn2c(c(C3CCCCC3)c3ccc(C(=O)O)cc32)-c2ccccc21` [Example 1-37, 13-cyclohexyl-5-{[N-(2-methoxyethyl)-N-methylcarbamoyl]methyl}-6,7-dihydro-5H-benzo[5,6][1,4]diazepino[7,1-a]indole-10-carboxylic acid monohydrochloride], for which the IC50 was less than 100 nM.

As to `CCN1CCN(CCN2CCn3c(c(C4CCCCC4)c4ccc(C(=O)O)cc43)-c3ccccc32)CC1` [Example 1-38, 13-cyclohexyl-5-[2-(4-ethylpiperazin-1-yl)ethyl]-6,7-dihydro-5H-benzo[5,6][1,4]diazepino[7,1-a]indole-10-carboxylic acid dihydrochloride], the IC50 is less than 100 nM.

In turn, `COC1CCN(CCN2CCn3c(c(C4CCCCC4)c4ccc(C(=O)O)cc43)-c3ccccc32)CC1` [Example 1-39, 13-cyclohexyl-5-[2-(4-methoxypiperidin-1-yl)ethyl]-6,7-dihydro-5H-benzo[5,6][1,4]diazepino[7,1-a]indole-10-carboxylic acid dihydrochloride] registered an IC50 of less than 100 nM. To `COCCN(C)CCN1CCn2c(c(C3CCCCC3)c3ccc(C(=O)O)cc32)-c2ccccc21` [Example 1-40, 13-cyclohexyl-5-{2-[N-(2-methoxyethyl)-N-methylamino]ethyl}-6,7-dihydro-5H-benzo[5,6][1,4]diazepino[7,1-a]indole-10-carboxylic acid dihydrochloride] belongs less than 100 nM.

Compound `O=C(O)c1ccc2c(C3CCCCC3)c3n(c2c1)CCN(CCc1ccccc1)c1ccccc1-3` [Example 1-41, 13-cyclohexyl-5-phenethyl-6,7-dihydro-5H-benzo[5,6][1,4]diazepino[7,1-a]indole-10-carboxylic acid monohydrochloride] showed an IC50 of less than 100 nM. Compound `O=C(O)c1ccc2c(C3CCCCC3)c3n(c2c1)CCN(CCN1CCC(O)CC1)c1ccccc1-3` [Example 1-42, 13-cyclohexyl-5-[2-(4-hydroxypiperidin-1-yl)ethyl]-6,7-dihydro-5H-benzo[5,6][1,4]diazepino[7,1-a]indole-10-carboxylic acid dihydrochloride] registered a half-inhibitory concentration (IC50) of less than 100 nM.

Compound `CN(C)C1CCN(C(=O)CN2CCn3c(c(C4CCCCC4)c4ccc(C(=O)O)cc43)-c3ccccc32)CC1` [Example 1-43, 13-cyclohexyl-5-[2-(4-dimethylaminopiperidin-1-yl)-2-oxoethyl]-6,7-dihydro-5H-benzo[5,6][1,4]diazepino[7,1-a]indole-10-carboxylic acid dihydrochloride] displayed an IC50 of less than 100 nM. The same measure for `CN(C)C1CCN(CCN2CCn3c(c(C4CCCCC4)c4ccc(C(=O)O)cc43)-c3ccccc32)CC1` [Example 1-44, 13-cyclohexyl-5-[2-(4-dimethylaminopiperidin-1-yl)ethyl]-6,7-dihydro-5H-benzo[5,6][1,4]diazepino[7,1-a]indole-10-carboxylic acid trihydrochloride]: less than 100 nM; for `O=C(O)c1ccc2c(C3CCCCC3)c3n(c2c1)CCN(CC(=O)N1CCS(=O)(=O)CC1)c1ccccc1-3` [Example 1-45, 13-cyclohexyl-5-[2-(1,1-dioxothiomorpholin-4-yl)-2-oxoethyl]-6,7-dihydro-5H-benzo[5,6][1,4]diazepino[7,1-a]indole-10-carboxylic acid monohydrochloride]: less than 100 nM; for `CCOC(=O)N1CCN(C(=O)CN2CCn3c(c(C4CCCCC4)c4ccc(C(=O)O)cc43)-c3ccccc32)CC1` [Example 1-46, 13-cyclohexyl-5-[2-(4-ethoxycarbonylpiperazin-1-yl)-2-oxoethyl]-6,7-dihydro-5H-benzo[5,6][1,4]diazepino[7,1-a]indole-10-carboxylic acid monohydrochloride]: less than 100 nM.

Regarding `CC(C)N1CCN(C(=O)CN2CCn3c(c(C4CCCCC4)c4ccc(C(=O)O)cc43)-c3ccccc32)CC1` [Example 1-47, 13-cyclohexyl-5-[2-(4-isopropylpiperazin-1-yl)-2-oxoethyl]-6,7-dihydro-5H-benzo[5,6][1,4]diazepino[7,1-a]indole-10-carboxylic acid dihydrochloride], the IC50 is less than 100 nM. As to `CC(C)N1CCN(CCN2CCn3c(c(C4CCCCC4)c4ccc(C(=O)O)cc43)-c3ccccc32)CC1` [Example 1-48, 13-cyclohexyl-5-[2-(4-isopropylpiperazin-1-yl)ethyl]-6,7-dihydro-5H-benzo[5,6][1,4]diazepino[7,1-a]indole-10-carboxylic acid trihydrochloride], the IC50 is less than 100 nM. With `O=C(O)c1ccc2c(C3CCCCC3)c3n(c2c1)CCN(CC(=O)N1CCCOCC1)c1ccccc1-3` [Example 1-49, 13-cyclohexyl-5-[2-(1,4-oxazepan-4-yl)-2-oxoethyl]-6,7-dihydro-5H-benzo[5,6][1,4]diazepino[7,1-a]indole-10-carboxylic acid monohydrochloride], the IC50 was less than 100 nM. The same measure for `CN1CCN(C(=O)CN2CCn3c(c(C4CCCCC4)c4ccc(C(=O)O)cc43)-c3ccccc32)CC1` [Example 1-50, 13-cyclohexyl-5-[2-(4-methylpiperazin-1-yl)-2-oxoethyl]-6,7-dihydro-5H-benzo[5,6][1,4]diazepino[7,1-a]indole-10-carboxylic acid dihydrochloride]: less than 100 nM; for `CC(=O)N1CCN(C(=O)CN2CCn3c(c(C4CCCCC4)c4ccc(C(=O)O)cc43)-c3ccccc32)CC1` [Example 1-51, 5-[2-(4-acetylpiperazin-1-yl)-2-oxoethyl]-13-cyclohexyl-6,7-dihydro-5H-benzo[5,6][1,4]diazepino[7,1-a]indole-10-carboxylic acid monohydrochloride]: less than 100 nM. The same measure for `CN1CCN(CCN2CCn3c(c(C4CCCCC4)c4ccc(C(=O)O)cc43)-c3ccccc32)CC1` [Example 1-52, 13-cyclohexyl-5-[2-(4-methylpiperazin-1-yl)ethyl]-6,7-dihydro-5H-benzo[5,6][1,4]diazepino[7,1-a]indole-10-carboxylic acid trihydrochloride]: less than 100 nM. As for `CN1CCCN(CCN2CCn3c(c(C4CCCCC4)c4ccc(C(=O)O)cc43)-c3ccccc32)CC1` [Example 1-53, 13-cyclohexyl-5-[2-(4-methyl-1,4-diazepan-1-yl)ethyl]-6,7-dihydro-5H-benzo[5,6][1,4]diazepino[7,1-a]indole-10-carboxylic acid trihydrochloride], the IC50 was less than 100 nM. The same measure for `CN1CCCN(C(=O)CN2CCn3c(c(C4CCCCC4)c4ccc(C(=O)O)cc43)-c3ccccc32)CC1` [Example 1-54, 13-cyclohexyl-5-[2-(4-methyl-1,4-diazepan-1-yl)-2-oxoethyl]-6,7-dihydro-5H-benzo[5,6][1,4]diazepino[7,1-a]indole-10-carboxylic acid dihydrochloride]: less than 100 nM; for `CCN1CCN(C(=O)CN2CCn3c(c(C4CCCCC4)c4ccc(C(N)=O)cc43)-c3ccccc32)CC1` [Example 1-55, 13-cyclohexyl-5-[2-(4-ethylpiperazin-1-yl)-2-oxoethyl]-6,7-dihydro-5H-benzo[5,6][1,4]diazepino[7,1-a]indole-10-carboxamide]: less than 100 nM; for `O=C(O)c1ccc2c(C3CCCCC3)c3n(c2c1)CCN(CC(=O)N1CCCC1)c1ccccc1-3` [Example 1-56, 13-cyclohexyl-5-[2-oxo-2-(pyrrolidin-1-yl)ethyl]-6,7-dihydro-5H-benzo[5,6][1,4]diazepino[7,1-a]indole-10-carboxylic acid monohydrochloride]: less than 100 nM.
